{"source": "patent US20220331303A1", "about": "“USE OF AN OREXIN 2 RECEPTOR AGONIST FOR THE TREATMENT OF EXCESSIVE SLEEPINESS” (Takeda Pharmaceutical Company Limited, priority 2019, published 2022)", "test_system": "sleep-deprived healthy volunteers", "experiment": "Maintenance of wakefulness test (MWT) in sleep-deprived healthy volunteers", "type": "in vivo, human", "method": "The primary objective of this study was to determine the effect of Compound A (methyl (2R,3S)-3-((methylsulfonyl)amino)-2-(((cis-4-phenylcyclohexyl)oxy)methyl)piperidine-1-carboxylate), 44 mg (low dose [LD]) and 112 mg (high dose [HD]), after a single IV dose (compared to placebo) on promoting wakefulness as measured by sleep latency on the MWT (performed at approximately 2, 4, 6, and 8 hours post-dosing starting at approximately 1:00 AM and then at approximate times of 3:00, 5:00, and 7:00 AM) in sleep-deprived healthy volunteers.\nThis was a phase 1b, single-center, randomized, double-blind, double-dummy, placebo- and active-controlled, 4-period Williams design crossover study to evaluate the PK, PD, and safety of Compound A in sleep-deprived healthy volunteers. Compound A was administered as a 9-hour IV infusion.\nHealthy adult male subjects aged 18 to 40 years, inclusive, who satisfied the inclusion and exclusion criteria were enrolled in the trial. On Day 1 of treatment period 1, eligible subjects were equally randomized to 4 treatment sequence groups (sequence 1 to 4) which defined the order of administration for Compound A LD, Compound A HD (both delivered as a 9-hour IV infusion), modafinil 300 mg, and placebo.\nDuring the day before dosing on Day 1, participants were administered the KSS at scheduled timepoints. A practice MWT session was performed on Day 1 treatment period 1 (only once during the entire study) to familiarize subjects with the procedures. Study drug was administered in the clinic in the evening on Day 1 of each treatment period. Subjects underwent the MWT and KSS at specified timepoints after the start of the infusion. Subjects were required to stay awake between the MWT tests. Following completion of the IV infusion on Day 2, subjects underwent an additional MWT test. When the final MWT test and cognitive testing were completed, subjects were allowed to sleep (recovery sleep) for approximately 6 hours. PSG recording was collected during this time. Subjects were discharged from the unit after completion on Day 2 with continuing actigraphy upon discharge (to begin on Day −6 before the next treatment period). The interval between each subsequent treatment period was at least 7 days to ensure that the subject's circadian rhythm had returned to a normal cycle. Subject's vital signs, including BP, were monitored during the dosing and testing period. Blood samples for determination of Compound A plasma concentrations were collected at specified timepoints on Days 1 and 2 of each treatment period. Subjects completed the Columbia-Suicide Severity Rating Scale (C-SSRS) during screening, before study drug administration, and before discharge on Day 2 of each treatment period.\nPrimary endpoint: Latency for each MWT, defined as time to sleep onset.", "key": {"[1]": {"conditions": "Compound A 44 mg (LD), 2 hours post infusion start"}, "[2]": {"conditions": "Compound A 44 mg (LD), 4 hours post infusion start"}, "[3]": {"conditions": "Compound A 44 mg (LD), 6 hours post infusion start"}, "[4]": {"conditions": "Compound A 44 mg (LD), 8 hours post infusion start"}, "[5]": {"conditions": "Compound A 44 mg (LD), average overall during infusion"}, "[6]": {"conditions": "Compound A 44 mg (LD, printed ED), 2 hours post infusion start"}, "[7]": {"conditions": "Compound A 44 mg (LD, printed ED), 4 hours post infusion start"}, "[8]": {"conditions": "Compound A 44 mg (LD, printed ED), 8 hours post infusion start"}, "[9]": {"conditions": "Compound A 44 mg, after the end of infusion (1 hour post end of infusion)"}, "[10]": {"conditions": "Compound A 112 mg (HD), 2 hours post infusion start"}, "[11]": {"conditions": "Compound A 112 mg (HD), 4 hours post infusion start"}}, "note": "“And” between values parts separate entries of the source, which are not always exact repeats. Equal entries are not always repeated."}
{"compound": "COC(=O)N1CCC[C@H](NS(C)(=O)=O)[C@@H]1CO[C@H]1CC[C@@H](c2ccccc2)CC1", "note": "[Compound A, methyl (2R,3S)-3-((methylsulfonyl)amino)-2-(((cis-4-phenylcyclohexyl)oxy)methyl)piperidine-1-carboxylate]", "values": [{"measurement": "Average total wake time (MWT), LS mean difference vs placebo", "setting": "Compound A 44 mg", "value": 16.36, "unit": "min"}, {"measurement": "Total sleep time (MWT) compared to placebo", "setting": "Compound A 44 mg", "value": "not significantly different than placebo"}, {"measurement": "Latency to Sleep Onset on MWT, LS Mean", "setting": "[1]", "value": 35.74, "unit": "min"}, {"measurement": "Latency to Sleep Onset on MWT, LS Mean Difference vs placebo", "setting": "[1]", "value": 20.06, "unit": "min"}, {"measurement": "Stage N1 Duration (MWT), LS Mean", "setting": "[1]", "value": 0.13, "unit": "min"}, {"measurement": "Stage N1 Duration (MWT), LS Mean Difference vs placebo", "setting": "[1]", "value": -1.02, "unit": "min"}, {"measurement": "Stage N2 Duration (MWT), LS Mean", "setting": "[1]", "value": 0.24, "unit": "min"}, {"measurement": "Stage N2 Duration (MWT), LS Mean Difference vs placebo", "setting": "[1]", "value": -0.61, "unit": "min"}, {"measurement": "Total Microsleeps (MWT), LS Mean", "setting": "[1]", "value": 0.38}, {"measurement": "Total Microsleeps (MWT), LS Mean Difference vs placebo", "setting": "[1]", "value": "−1.42"}, {"measurement": "Duration Total Microsleeps (MWT), LS Mean", "setting": "[2]", "value": 10.39, "unit": "s"}, {"measurement": "Duration Total Microsleeps (MWT), LS Mean Difference vs placebo", "setting": "[2]", "value": -1.91, "unit": "s"}, {"measurement": "Stage N1 Duration (MWT), LS Mean", "setting": "[2]", "value": 0.52, "unit": "min"}, {"measurement": "Stage N1 Duration (MWT), LS Mean Difference vs placebo", "setting": "[2]", "value": -1.13, "unit": "min"}, {"measurement": "Stage N2 Duration (MWT), LS Mean", "setting": "[2]", "value": 0.51, "unit": "min"}, {"measurement": "Stage N2 Duration (MWT), LS Mean Difference vs placebo", "setting": "[2]", "value": -0.64, "unit": "min"}, {"measurement": "Total Microsleeps (MWT), LS Mean", "setting": "[2]", "value": 2.21}, {"measurement": "Total Microsleeps (MWT), LS Mean Difference vs placebo", "setting": "[2]", "value": "−0.14"}, {"measurement": "Duration Total Microsleeps (MWT), LS Mean", "setting": "[3]", "value": 11.84, "unit": "s"}, {"measurement": "Duration Total Microsleeps (MWT), LS Mean Difference vs placebo", "setting": "[3]", "value": 4.44, "unit": "s"}, {"measurement": "Latency to Sleep Onset on MWT, LS Mean", "setting": "[3]", "value": 20.71, "unit": "min"}, {"measurement": "Latency to Sleep Onset on MWT, LS Mean Difference vs placebo", "setting": "[3]", "value": 14.56, "unit": "min"}, {"measurement": "Stage N1 Duration (MWT), LS Mean", "setting": "[3]", "value": 1.80, "unit": "min"}, {"measurement": "Stage N1 Duration (MWT), LS Mean Difference vs placebo", "setting": "[3]", "value": 0.65, "unit": "min"}, {"measurement": "Stage N2 Duration (MWT), LS Mean", "setting": "[3]", "value": 2.63, "unit": "min"}, {"measurement": "Stage N2 Duration (MWT), LS Mean Difference vs placebo", "setting": "[3]", "value": 2.13, "unit": "min"}, {"measurement": "Total Microsleeps (MWT), LS Mean", "setting": "[3]", "value": 2.32}, {"measurement": "Total Microsleeps (MWT), LS Mean Difference vs placebo", "setting": "[3]", "value": 1.07}, {"measurement": "Latency to Sleep Onset on MWT, LS Mean", "setting": "[4]", "value": 13.13, "unit": "min"}, {"measurement": "Latency to Sleep Onset on MWT, LS Mean Difference vs placebo", "setting": "[4]", "value": 9.60, "unit": "min"}, {"measurement": "Stage N1 Duration (MWT), LS Mean", "setting": "[4]", "value": 1.57, "unit": "min"}, {"measurement": "Stage N1 Duration (MWT), LS Mean Difference vs placebo", "setting": "[4]", "value": 0.42, "unit": "min"}, {"measurement": "Stage N2 Duration (MWT), LS Mean", "setting": "[4]", "value": 3.74, "unit": "min"}, {"measurement": "Stage N2 Duration (MWT), LS Mean Difference vs placebo", "setting": "[4]", "value": 2.64, "unit": "min"}, {"measurement": "Total Microsleeps (MWT), LS Mean", "setting": "[4]", "value": 2.10}, {"measurement": "Total Microsleeps (MWT), LS Mean Difference vs placebo", "setting": "[4]", "value": 0.80}, {"measurement": "Duration Total Microsleeps (MWT), LS Mean", "setting": "[5]", "value": 8.89, "unit": "s"}, {"measurement": "Duration Total Microsleeps (MWT), LS Mean Difference vs placebo", "setting": "[5]", "value": -0.18, "unit": "s"}, {"measurement": "Latency to Sleep Onset on MWT, LS Mean", "setting": "[5]", "value": "25.40 min and 25.40 (1.955) min"}, {"measurement": "Latency to Sleep Onset on MWT, LS Mean Difference vs placebo", "setting": "[5]", "value": "16.79 min and 16.8 min and 16.79 (2.682) min"}, {"measurement": "Stage N1 Duration (MWT), LS Mean", "setting": "[5]", "value": 1.01, "unit": "min"}, {"measurement": "Stage N1 Duration (MWT), LS Mean Difference vs placebo", "setting": "[5]", "value": -0.27, "unit": "min"}, {"measurement": "Stage N2 Duration (MWT), LS Mean", "setting": "[5]", "value": 1.78, "unit": "min"}, {"measurement": "Stage N2 Duration (MWT), LS Mean Difference vs placebo", "setting": "[5]", "value": 0.88, "unit": "min"}, {"measurement": "Total Microsleeps (MWT), LS Mean", "setting": "[5]", "value": 1.75}, {"measurement": "Total Microsleeps (MWT), LS Mean Difference vs placebo", "setting": "[5]", "value": 0.08}, {"measurement": "Duration Total Microsleeps (MWT), LS Mean", "setting": "[6]", "value": 1.61, "unit": "s"}, {"measurement": "Duration Total Microsleeps (MWT), LS Mean Difference vs placebo", "setting": "[6]", "value": -7.19, "unit": "s"}, {"measurement": "Latency to Sleep Onset on MWT, LS Mean", "setting": "[7]", "value": 32.04, "unit": "min"}, {"measurement": "Latency to Sleep Onset on MWT, LS Mean Difference vs placebo", "setting": "[7]", "value": 22.94, "unit": "min"}, {"measurement": "Duration Total Microsleeps (MWT), LS Mean", "setting": "[8]", "value": 11.72, "unit": "s"}, {"measurement": "Duration Total Microsleeps (MWT), LS Mean Difference vs placebo", "setting": "[8]", "value": 3.92, "unit": "s"}, {"measurement": "Latency to Sleep Onset on MWT, LS Mean (SE)", "setting": "[9]", "value": "2.49 (2.241)"}, {"measurement": "Latency to Sleep Onset on MWT, LS Mean Difference vs placebo, Estimate (SE)", "setting": "[9]", "value": "−2.16 (2.752)"}, {"measurement": "Average total wake time (MWT), LS mean difference vs placebo", "setting": "Compound A 112 mg", "value": 29.59, "unit": "min"}, {"measurement": "Sleep latency on the MWT during infusion, stayed across several sessions", "setting": "Compound A 112 mg", "value": 40, "unit": "min"}, {"measurement": "Total sleep time (MWT), LS mean difference vs placebo", "setting": "Compound A 112 mg", "value": -2.56, "unit": "min"}, {"measurement": "Duration Total Microsleeps (MWT), LS Mean", "setting": "[10]", "value": -0.02, "unit": "s"}, {"measurement": "Duration Total Microsleeps (MWT), LS Mean Difference vs placebo", "setting": "[10]", "value": -8.82, "unit": "s"}, {"measurement": "Latency to Sleep Onset on MWT, LS Mean", "setting": "[10]", "value": 40.02, "unit": "min"}, {"measurement": "Latency to Sleep Onset on MWT, LS Mean Difference vs placebo", "setting": "[10]", "value": 24.35, "unit": "min"}, {"measurement": "Stage N1 Duration (MWT), LS Mean", "setting": "[10]", "value": -0.04, "unit": "min"}, {"measurement": "Stage N1 Duration (MWT), LS Mean Difference vs placebo", "setting": "[10]", "value": -1.19, "unit": "min"}, {"measurement": "Stage N2 Duration (MWT), LS Mean", "setting": "[10]", "value": 0.00, "unit": "min"}, {"measurement": "Stage N2 Duration (MWT), LS Mean Difference vs placebo", "setting": "[10]", "value": -0.85, "unit": "min"}, {"measurement": "Total Microsleeps (MWT), LS Mean", "setting": "[10]", "value": 0.00}, {"measurement": "Total Microsleeps (MWT), LS Mean Difference vs placebo", "setting": "[10]", "value": "−1.80"}, {"measurement": "Duration Total Microsleeps (MWT), LS Mean", "setting": "[11]", "value": -0.02, "unit": "s"}, {"measurement": "Duration Total Microsleeps (MWT), LS Mean Difference vs placebo", "setting": "[11]", "value": -12.3, "unit": "s"}, {"measurement": "Latency to Sleep Onset on MWT, LS Mean", "setting": "[11]", "value": 40.05, "unit": "min"}, {"measurement": "Latency to Sleep Onset on MWT, LS Mean Difference vs placebo", "setting": "[11]", "value": 30.95, "unit": "min"}, {"measurement": "Stage N1 Duration (MWT), LS Mean", "setting": "[11]", "value": -0.04, "unit": "min"}, {"measurement": "Stage N1 Duration (MWT), LS Mean Difference vs placebo", "setting": "[11]", "value": -1.69, "unit": "min"}, {"measurement": "Stage N2 Duration (MWT), LS Mean", "setting": "[11]", "value": 0.00, "unit": "min"}]}
